Reference: ChEMBL document CHEMBL4619786, “Discovery of Novel Resorcinol Dibenzyl Ethers Targeting the Programmed Cell Death-1/Programmed Cell Death-Ligand 1 Interaction as Potential Anticancer Agents” (J Med Chem, 2020)

Assays:
[1] = target: Programmed cell death protein 1/Programmed cell death 1 ligand 1 (Homo sapiens) (UniProt Q15116+Q9NZQ7); assay: (§1) Inhibition of human PD1/PDL1 protein-protein interaction in human PBMC-derived CD3-positive T cells co-cultured with human Hep3B cells expressing human PDL1/OS-8 assessed as increase in IFNgamma secretion measured after 72 hrs by ELISA
[2] = target: Programmed cell death protein 1/Programmed cell death 1 ligand 1 (Homo sapiens, UniProt Q9NZQ7); assay: as §1
Chain of Programmed cell death protein 1/Programmed cell death 1 ligand 1 (Q15116 whole entry): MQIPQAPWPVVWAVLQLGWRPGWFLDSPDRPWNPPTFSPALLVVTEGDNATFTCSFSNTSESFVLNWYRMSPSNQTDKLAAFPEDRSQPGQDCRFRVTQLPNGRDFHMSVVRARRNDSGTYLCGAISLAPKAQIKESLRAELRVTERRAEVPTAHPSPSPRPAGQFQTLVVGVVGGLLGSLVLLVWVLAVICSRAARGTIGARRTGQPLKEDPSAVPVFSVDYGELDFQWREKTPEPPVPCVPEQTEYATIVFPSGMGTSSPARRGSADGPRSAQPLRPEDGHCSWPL
Chain of Programmed cell death protein 1/Programmed cell death 1 ligand 1 (Q9NZQ7 whole entry): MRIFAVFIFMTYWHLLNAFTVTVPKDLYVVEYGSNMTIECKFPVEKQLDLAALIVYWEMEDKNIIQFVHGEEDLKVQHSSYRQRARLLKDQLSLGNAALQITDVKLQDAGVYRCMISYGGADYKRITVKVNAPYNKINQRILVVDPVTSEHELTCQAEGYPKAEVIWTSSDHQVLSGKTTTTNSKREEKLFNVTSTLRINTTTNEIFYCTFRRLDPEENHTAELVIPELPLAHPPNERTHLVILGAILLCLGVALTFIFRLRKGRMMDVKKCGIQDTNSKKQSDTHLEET

[3] = AUC (0 to t) in Sprague-Dawley rat at 1 mg/kg, iv by LC-MS/MS analysis; assay type: ADME, organism-based; details: in vivo
[4] = Clearance in Sprague-Dawley rat at 1 mg/kg, iv by LC-MS/MS analysis; assay type: ADME, organism-based; details: in vivo
[5] = AUC (0 to t) in Sprague-Dawley rat at 10 mg/kg, po by LC-MS/MS analysis; assay type: ADME, organism-based; details: in vivo
[6] = Volume of distribution at steady state in Sprague-Dawley rat at 10 mg/kg, po by LC-MS/MS analysis; assay type: ADME, organism-based; details: in vivo
MCF7 = assay: Cytotoxicity against human MCF7 cells assessed as reduction in cell viability measured after 48 hrs by MTT assay; assay type: functional, cell-based; details: MCF7, 48 h
B16-F10 [7] = assay: Antitumor activity against mouse B16/F10 cells implanted in BALB/c mouse assessed as tumor weight at 50 mg/kg, ig administered once daily via gavage for 15 days measured 24 hrs post-last dose (reference value: 0.84 +/- 0.32 g); assay type: functional
B16-F10 [8] = assay: Antitumor activity against mouse B16/F10 cells implanted in BALB/c mouse assessed as tumor growth inhibition at 50 mg/kg, ig administered once daily via gavage for 15 days relative to control; assay type: functional; details: B16-F10, po, 360 h, read-out: TGI
[9] = Toxicity in mouse B16/F10 cells implanted […] mouse assessed as effect on physical activity at 25 to 100 mg/kg, ig administered once daily via gavage for 15 days measured during compound dosing; assay type: organism-based; details: in vivo, po, 360 h
[10] = Toxicity in mouse B16/F10 cells implanted […] mouse assessed as change in spleen weight at 25 to 100 mg/kg, ig administered once daily via gavage for 15 days measured 24 hrs post-last dose; assay type: organism-based; details: in vivo, po
[11] = Toxicity in mouse B16/F10 cells implanted […] mouse assessed as change in thymus weight at 25 to 100 mg/kg, ig administered once daily via gavage for 15 days measured 24 hrs post-last dose; assay type: organism-based; details: in vivo, po
H22 = assay: Antitumor activity against […] cells xenografted in BALB/c mouse assessed as tumor growth inhibition at 25 mg/kg, ip administered once daily 14 days relative to control; assay type: functional; details: 336 h, read-out: TGI
Mus musculus [12] = assay: (§2) Immunostimulatory activity in mouse B16/F10 cells implanted […] mouse assessed as increase in activation of tumor-microenvironment mediated helper T cells in tumor by measuring CD4-positive cell population at 100 mg/kg, ig administered once daily via gavage for 15 days measured 24 hrs post-last dose by immunostaining based flow cytometry (reference value: 4.95%); assay type: functional
Mus musculus [13] = assay: as §2, with “melanoma” for “CD4-positive”, “70%)” for “4.95%)”; assay type: functional
Mus musculus [14] = assay: as §2, with “activated cytotoxic” for “helper”, “melanoma” for “CD4-positive”, “72.8%)” for “4.95%)”; assay type: functional
Mus musculus [15] = assay: as §2, with “melanoma” for “CD4-positive”, “50” for “100”, “70%)” for “4.95%)”; assay type: functional
Mus musculus [16] = assay: as §2, with “activated cytotoxic” for “helper”, “CD3-positive” for “CD4-positive”, “50” for “100”, “20.8%)” for “4.95%)”; assay type: functional
Mus musculus [17] = assay: as §2, with “25” for “100”; assay type: functional
Mus musculus [18] = assay: as §2, with “CD3-positive/CD4-positive” for “CD4-positive”, “25” for “100”, “6.15%)” for “4.95%)”; assay type: functional
Mus musculus [19] = assay: as §2, with “melanoma” for “CD4-positive”, “25” for “100”, “70%)” for “4.95%)”; assay type: functional
Mus musculus [20] = assay: as §2, with “CD3-positive” for “CD4-positive”, “25” for “100”, “18.9%)” for “4.95%)”; assay type: functional
Mus musculus [21] = assay: as §2, with “activated cytotoxic” for “helper”, “melanoma” for “CD4-positive”, “25” for “100”, “72.8%)” for “4.95%)”; assay type: functional
Mus musculus [22] = assay: Effect on spleen helper T cell population in mouse B16/F10 cells implanted […] mouse assessed as CD4-positive cell population at 100 mg/kg, ig administered once daily via gavage for 15 days measured 24 hrs post-last dose by immunostaining based flow cytometry (reference value: 1.47 %); assay type: ADME, organism-based; details: in vivo, po
Mus musculus [23] = assay: Effect on spleen helper T cell population in mouse B16/F10 cells implanted […] mouse assessed as spleen cell population at 100 mg/kg, ig administered once daily via gavage for 15 days measured 24 hrs post-last dose by immunostaining based flow cytometry (reference value: 56.1 %); assay type: ADME, organism-based; details: in vivo, po
Mus musculus [24] = assay: Effect on activated cytotoxic T cell population in mouse B16/F10 cells implanted […] mouse assessed as CD3-positive/CD8-positive cell population in spleen at 100 mg/kg, ig administered once daily via gavage for 15 days measured 24 hrs post-last dose by immunostaining based flow cytometry (reference value: 14.2 %); assay type: organism-based; details: in vivo, po
Mus musculus [25] = assay: Effect on activated cytotoxic T cell population in mouse B16/F10 cells implanted […] mouse assessed as spleen cell population at 100 mg/kg, ig administered once daily via gavage for 15 days measured 24 hrs post-last dose by immunostaining based flow cytometry (reference value: 57.9 %); assay type: organism-based; details: in vivo, po
Mus musculus [26] = assay: Effect on spleen helper T cell population in mouse B16/F10 cells implanted […] mouse assessed as CD3-positive/CD4-positive cell population at 50 mg/kg, ig administered once daily via gavage for 15 days measured 24 hrs post-last dose by immunostaining based flow cytometry (reference value: 27.7%); assay type: ADME, organism-based; details: in vivo, po
Mus musculus [27] = assay: Effect on activated cytotoxic T cell population in mouse B16/F10 cells implanted […] mouse assessed as CD3-positive cell population in spleen at 50 mg/kg, ig administered once daily via gavage for 15 days measured 24 hrs post-last dose by immunostaining based flow cytometry (reference value: 27.5 %); assay type: organism-based; details: in vivo, po
Mus musculus [28] = assay: Effect on activated cytotoxic T cell population in mouse B16/F10 cells implanted […] mouse assessed as CD8-positive cell population in spleen at 25 mg/kg, ig administered once daily via gavage for 15 days measured 24 hrs post-last dose by immunostaining based flow cytometry (reference value: 0.383 %); assay type: organism-based; details: in vivo, po
Mus musculus [29] = assay: Effect on activated cytotoxic T cell population in mouse B16/F10 cells implanted […] mouse assessed as spleen cell population at 25 mg/kg, ig administered once daily via gavage for 15 days measured 24 hrs post-last dose by immunostaining based flow cytometry (reference value: 57.9 %); assay type: organism-based; details: in vivo, po

Cc1c(COc2cc(OCc3cccc(C#N)c3)c(CNC(C)(C)C(=O)O)cc2Cl)cccc1-c1ccccc1
inhibition [1]: Dose-dependent effect | EC50 [2]: 3 µM | AUC(0-t) [3]: 967 ng·h/mL | clearance [4]: 15 mL/min/kg | AUC(0-t) [5]: 410 ng·h/mL | Vdss [6]: 290.3 L/kg | IC50 (MCF7): > 10 µM | Activity (B16-F10 [7]): 0.21 g | inhibition in vivo at 50 mg/kg (B16-F10 [8]): 75% | Activity [9]: Non-Toxic | Activity [10]: Non-Toxic | Activity [11]: Non-Toxic | inhibition in vivo at 25 mg/kg (H22): 76.5% | Activity (Mus musculus [12]): 1.3% | Activity (Mus musculus [13]): 57% | Activity (Mus musculus [14]): 44.8% | Activity (Mus musculus [15]): 68.4% | Activity (Mus musculus [16]): 14.5% | Activity (Mus musculus [17]): 4.36% | Activity (Mus musculus [18]): 15.4% | Activity (Mus musculus [19]): 65.2% | Activity (Mus musculus [20]): 15% | Activity (Mus musculus [21]): 59.4% | Activity (Mus musculus [22]): 1.78% | Activity (Mus musculus [23]): 60.4% | Activity (Mus musculus [24]): 11.6% | Activity (Mus musculus [25]): 62.6% | Activity (Mus musculus [26]): 28.2% | Activity (Mus musculus [27]): 28.8% | Activity (Mus musculus [28]): 0.452% | Activity (Mus musculus [29]): 62.7%
